Laboratory results from US20050171358A1 (priority 2002, published 2005).

Legend:
Pyricularia oryzae = type: in vivo; conditions: 200 ppm spray on rice (Koshihikari, 3 leaf stage), inoculated next day; lesion numbers on third leaves after 7 days in green house, graded by Table 5
[1] = test system: Colletotrichum lagenarium; conditions: 200 ppm spray on cucumber (3 leaf stage), inoculated next day; lesion numbers on first and second leaves after 7 days in green house, graded by Table 5

Row | SMILES | Evaluation (effect for rice blast) (Pyricularia oryzae) | Evaluation (effect for cucumber anthracnose) [1]
1 | Cc1cc(CNC(=O)NC2CCCCC2)on1 [II-108, 3-(3-methyl-5-isoxazolyl)methyl-1-cyclohexylurea] | 1 (21˜41) | 2 (11˜20)
2 | CNC(=O)c1cc(CNC(=O)NC2CCCCC2)on1 [II-110, 3-(3-methylaminocarbonyl-5-isoxazolyl)methyl-1-cyclohexylurea] | 1 (21˜41) | 1 (21˜41)
3 | O=C(NCc1cc(COC2=CC(=O)C3CCC2C3)no1)NC1CCCCC1 (stereo not shown) [II-112, 3-[3-(bicyclo[3.2.1]oct-2-en-4-on-2-yl)oxymethyl-5-isoxazolyl]methyl-1-cyclohexylurea] | 3 (6˜10) | 3 (6˜10)
4 | N#CCc1cc(CNC(=O)NC2CCCCC2)on1 [II-113, 3-(3-cyanomethyl-5-isoxazolyl)methyl-1-cyclohexylurea] | 2 (11˜20) | 1 (21˜41)
5 | CSCc1cc(CNC(=O)NC2CCCCC2)on1 [II-114, 3-(3-methylthiomethyl-5-isoxazolyl)methyl-1-cyclohexylurea] | 3 (6˜10) | 3 (6˜10)
6 | CC(C)c1cc(CNC(=O)c2ccccc2)on1 [III-4, N-[(3-isopropyl-5-isoxazolyl)methyl]benzamide] | 3 (6˜10) | 4 (1˜5)
7 | Cc1ccc(C(=O)NCc2cc(C(C)C)no2)cc1 [III-5, N-[(3-isopropyl-5-isoxazolyl)methyl]-4-methyl benzamide] | 4 (1˜5) | 4 (1˜5)
8 | O=C(NCc1cc(C2CCCCC2)no1)c1ccccc1 [III-6, N-[(3-cyclohexyl-5-isoxazolyl)methyl]benzamide] | 5 (0) | 4 (1˜5)
9 | Cc1ccc(-c2cc(CNC(=O)c3ccccc3)on2)cc1 [III-10, N-{[3-(4-tolyl)-5-isoxazolyl]methyl}benzamide] | 5 (0) | 5 (0)
10 | Cc1ccc(C(=O)NCc2cc(-c3ccc(C)cc3)no2)cc1 [III-11, N-{[3-(4-tolyl)-5-isoxazolyl]methyl}-4-methylbenzamide] | 5 (0) | 3 (6˜10)
11 | COc1ccc(C(=O)NCc2cc(-c3ccc(C)cc3)no2)cc1 [III-12, N-{[3-(4-tolyl)-5-isoxazolyl]methyl}-4-methoxybenzamide] | 5 (0) | 5 (0)
12 | COc1ccc(C(=O)NCc2cc(-c3ccc(C(C)(C)C)cc3)no2)cc1 [III-14, N-{[3-(4-t-butylphenyl)-5-isoxazolyl]methyl}-4-methoxybenzamide] | 5 (0) | 3 (6˜10)
13 | COc1ccc(-c2cc(CNC(=O)c3ccccc3)on2)cc1 [III-17, N-{[3-(4-methoxyphenyl)-5-isoxazolyl]methyl}benzamide] | 5 (0) | 5 (0)
14 | COc1ccc(C(=O)NCc2cc(-c3ccc(OC)cc3)no2)cc1 [III-18, N-{[3-(4-methoxyphenyl)-5-isoxazolyl]methyl}-4-methoxy benzamide] | 5 (0) | 5 (0)
15 | COc1ccc(-c2cc(CNC(=O)c3ccc(C)cc3)on2)cc1 [III-19, N-{[3-(4-methoxyphenyl)-5-isoxazolyl]methyl}-4-methylbenzamide] | 5 (0) | 5 (0)
16 | Cc1ccc(C(=O)NCc2cc(-c3ccc(S(C)(=O)=O)cc3)no2)cc1 [III-26, N-{[3-(4-mesylphenyl)-5-isoxazolyl]methyl}-4-methylbenzamide] | 5 (0) | 5 (0)
17 | Cc1ccc(C(=O)NCc2cc(-c3ccc([S+](C)[O-])cc3)no2)cc1 (stereo not shown) [III-27, N-{[3-(4-methanesulfinylphenyl)-5-isoxazolyl]methyl}-4-methylbenzamide] | 5 (0) | 5 (0)
18 | CSc1ccc(-c2cc(CNC(=O)c3ccc(C)cc3)on2)cc1 [III-28, N-{[3-(4-methylthiophenyl)-5-isoxazolyl]methyl}-4-methylbenzamide] | 5 (0) | 4 (1˜5)
19 | Cc1ccc(C(=O)NCc2cc(-c3ccc(F)cc3)no2)cc1 [III-31, N-{[3-(4-fluorophenyl)-5-isoxazolyl]methyl}-4-methylbenzamide] | 5 (0) | 5 (0)
20 | O=C(NCc1cc(-c2ccc(Cl)cc2)no1)c1ccccc1 [III-34, N-{[3-(4-chlorophenyl)-5-isoxazolyl]methyl}benzamide] | 5 (0) | 5 (0)
21 | O=C(NCc1cc(-c2ccc(Br)cc2)no1)c1ccccc1 [III-37, N-{[3-(4-bromophenyl)-5-isoxazolyl]methyl}benzamide] | 5 (0) | 3 (6˜10)
22 | O=C(NCc1cc(-c2ccc(C(F)(F)F)cc2)no1)c1ccccc1 [III-40, N-{[3-(4-trifluoromethylphenyl)-5-isoxazolyl]methyl}benzamide] | 5 (0) | 5 (0)
23 | Cc1ccc(C(=O)NCc2cc(-c3ccc(C#N)cc3)no2)cc1 [III-43, N-{[3-(4-cyanophenyl)-5-isoxazolyl]methyl}-4-methylbenzamide] | 5 (0) | 4 (1˜5)
24 | COc1ccc(C(=O)NCc2cc(-c3ccc(OC(F)(F)F)cc3)no2)cc1 [III-49, N-{[3-(4-trifluoromethoxyphenyl)-5-isoxazolyl]methyl}-4-methoxybenzamide] | 5 (0) | 5 (0)
25 | Cc1ccc(C(=O)NCc2cc(-c3ccc(C(=O)O)cc3)no2)cc1 [III-51, N-{[3-(4-carboxyphenyl)-5-isoxazolyl]methyl}-4-methylbenzamide] | 5 (0) | 4 (1˜5)
26 | COC(=O)c1ccc(-c2cc(CNC(=O)c3ccc(C)cc3)on2)cc1 [III-52, N-{[3-(4-methoxycarbonylphenyl)-5-isoxazolyl]methyl}-4-methylbenzamide] | 5 (0) | 5 (0)
27 | Cc1ccc(C(=O)NCc2cc(-c3ccc(N(C)C)cc3)no2)cc1 [III-61, N-{[3-(4-dimethylaminophenyl)-5-isoxazolyl]methyl}-4-methylbenzamide] | 5 (0) | 4 (1˜5)
28 | Cc1ccc(C(=O)NCc2cc(-c3ccc(C)cc3C)no2)cc1 [III-65, N-{[3-(2,4-dimethylphenyl)-5-isoxazolyl]methyl}-4-methylbenzamide] | 5 (0) | 5 (0)
29 | COc1ccc(-c2cc(CNC(=O)c3ccc(C)cc3)on2)c(OC)c1 [III-66, N-{[3-(2,4-dimethoxyphenyl)-5-isoxazolyl]methyl}-4-methylbenzamide] | 5 (0) | 5 (0)
